# Experimental data: patent US20080188449A1, “Treatment of Conditions Caused By Calcium Abnormalities” (priority 2004, published 2008)
# How the values were obtained:
# [1] = test system: pregnant C57B1/6 mice; assay: Toxicity dose finding in pregnant mice; format: in vivo; details: i.p.
# Procedure: Triptolide has been previously studied in rodent models of tumor regression (Tengchaisri, et al., 1998, Cancer Lett 133, 169-175; Yang, et al., 2003, Mol Cancer Ther 2, 65-72), but it had not yet been tested in a system utilizing pregnant females. To first establish a potential therapeutic versus lethal concentration of drug delivery, pregnant C57B1/6 mice were treated with incremental concentrations of triptolide between 0.01-0.15 mg/kg/day i.p. injections. Toxicity was assessed as determined by resorption of all embryos or the preponderance of a large percentage of stillborns. With reference to these criteria, triptolide toxicity was determined to be most prominent at concentrations of 0.1 mg/kg/day or greater. […] Another experimental parameter involved the timing of the start of triptolide injections, since polycystin-2 has been implicated in left-right axis formation in the developing embryo at approximately E7.75 (McGrath, et al., 2003, Cell 114, 61-73; Pennekamp, et al., 2002, Curr Biol 12, 938-943). Applicants therefore chose E10.5 as the start of triptolide injections, in order to allow for a normal polycystin-2 mediated patterning event and still leave sufficient time to act on cyst formation during kidney organogenesis.
# [2] = test system: Pkd1^−/− murine kidney epithelial cells; assay: Growth, p21 and active caspase-3 in Pkd1^−/− cells; format: cell-based
# Procedure: Calcium response to triptolide was, thus, shown to be dependent on polycystin-2. The biological response to calcium flux was next assessed in the murine Pkd1^−/− cell line, by adding 100 nM triptolide to the cultured cells and observing cell growth over time. Within the first 24 hours of culture, a minimal number of detached cells was observed. […] In the absence of triptolide, this cell line underwent a population doubling every 48 hours. […] It is possible that additional signaling pathways are activated by triptolide when Pkd1 is expressed. […] Therefore, Applicants assessed whether the inhibition of proliferation observed was due to p21 re-expression upon triptolide treatment.
# The Pkd1^−/−(MN24), Pkd2^+/−(3B3) and Pkd2^−/−(2D2) murine cell lines were derived from knockout and transgenic mice as previously reported (Wu, et al., 1998, Cell, 93:177-88; Wu, et al., 2000, Nat. Genet, 24:75-8; Wu, et al., 2002, Hum Mol Genet, 11:1845-54). The PKD2-Rex cell line was made by stable integration of untagged PKD2 under hygromycin selection. Antibodies used included polycystin-2 (Cai, et al. 1999, J Biol Chem, 274:28557-65), cleaved (active) caspase-3 (Cell Signaling Technology) and p21 (BD Biosciences). Triptolide was obtained from Sinobest Inc. (China) and purity was 99% as determined by HPLC. DMSO was used to dissolve triptolide and was then directly added into culture media for all experiments. Triptolide was tritiated by Sib Tech, Inc. (Newington, Conn.) and resuspended in ethanol to a specific activity of 4-6 Ci/mmol. Purity was >95% as confirmed by RP-HPLC on a Hypersil C18 column and by TLC on both C18 and silica gel.
# Total cell lysates (0.5% Triton X-100, 50 mM Tris pH 7.4, 150 mM NaCl, […]) were prepared for Western blot analysis and samples were run out by SDS-PAGE as per manufacturers' protocols. Brightfield images of cells were taken using a 10× or 40× objective. Confocal microscopy (40×) was used for immunofluorescence imaging of polycystin-2.
# [3] = test system: HeLa cells; assay: HeLa cell viability by trypan blue dye exclusion; format: cell-based; details: 10 μM (so in the source), 48 hours
# [4] = test system: polycystin-2; assay: Fluo-4 calcium imaging in murine kidney epithelial cells; format: cell-based
# Excerpt: Murine kidney epithelial cell lines with differing polycystin-1 or polycystin-2 expression were used to establish a cellular based mechanism for polycystin-2 mediated calcium release in response to triptolide. Because the biochemical purification analysis identified polycystin-2 as a putative triptolide binding protein, Applicants assessed whether the calcium release was dependent upon expression of polycystin-1. Epithelial cells derived from the proximal nephric tubules of Pkd1^−/− mice were first examined to determine if calcium release was observed when 100 nM of triptolide was perfused through the imaging chamber. […] To strengthen the evidence that polycystin-2 was necessary for calcium release elicited by triptolide addition, it was reconstituted by stable expression of Pkd2 into the background of Pkd2^−/− cells, which were assessed for sensitivity to triptolide.
# Cells were plated on coverslips and loaded with Fluo-4 (Molecular Probes) diluted in DMSO/pluronic for 30 minutes prior to imaging. Cells were perfused with a calcium imaging buffer (HEPES, NaCl, KCl, MgSO4 and CaCl2)±100 nM triptolide. All cell traces are indicative of individual cellular fluorescence and calcium release. Data is presented as change of fluorescence over baseline control (no triptolide addition).
smiles,measurement,setting,value
"CC(C)[C@]12O[C@H]1[C@@H]1O[C@]13[C@]1(O[C@H]1C[C@H]1C4=C(CC[C@@]13C)C(=O)OC4)[C@@H]2O [triptolide, Triptolide]","dose at which toxicity was most prominent (resorption of embryos, stillborns)",[1],≥ 0.1 mg/kg/day
same,active caspase-3 (western blot),[2]; 100 nM time course,failed to implicate triptolide induced apoptosis
same,p21 expression (western blot),"[2]; 100 nM, 96 hour time course",upregulated
same,cell growth,"[2]; 100 nM, over 96 hours",growth arrested
same,cell proliferation and cell death,[3],inhibited cell proliferation but did not induce cell death
same,calcium release,"[4]; 100 nM perfused, Pkd2^−/− cells",no calcium release was detected
same,calcium release,"[4]; 100 nM, Pkd2 re-expressed in Pkd2^−/− cells",restored calcium release
